Reference: ChEMBL document CHEMBL5303766, “Data for DCP probe FHT-2344” (2022)
The source made the active and inactive calls. No cut-off for these calls is given here.

Key:
[1] = biological target: D(1A) dopamine receptor (Homo sapiens) (UniProt P21728); settings: Compound concentration 10.0 uM
[2] = biological target: Tyrosine-protein kinase ABL1 (Homo sapiens) (UniProt P00519); experiment: ABL1 SGC Tm panel (DSF); settings: for ΔTm: Compound concentration 10.0 uM
[3] = biological target: Casein kinase I isoform delta (Homo sapiens) (UniProt P48730); experiment: CSNK1D SGC Tm panel (DSF); settings: for ΔTm: Compound concentration 10.0 uM
Casein kinase I isoform delta (Homo sapiens), sequence (P48730 whole entry, looked up, canonical isoform): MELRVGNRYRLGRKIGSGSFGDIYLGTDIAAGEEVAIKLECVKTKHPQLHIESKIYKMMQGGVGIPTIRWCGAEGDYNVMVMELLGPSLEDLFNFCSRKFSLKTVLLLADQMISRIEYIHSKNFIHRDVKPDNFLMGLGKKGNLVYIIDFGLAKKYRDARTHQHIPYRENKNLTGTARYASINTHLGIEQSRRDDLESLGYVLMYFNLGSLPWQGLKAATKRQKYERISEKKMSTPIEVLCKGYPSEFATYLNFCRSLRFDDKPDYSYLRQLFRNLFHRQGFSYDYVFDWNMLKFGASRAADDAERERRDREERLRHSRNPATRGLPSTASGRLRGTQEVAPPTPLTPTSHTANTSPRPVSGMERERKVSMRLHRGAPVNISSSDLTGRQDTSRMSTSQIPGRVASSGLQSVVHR

[4] = biological target: Transcription initiation factor TFIID subunit 1 (Homo sapiens) (UniProt P21675); experiment: TAF1 SGC Tm panel (DSF); settings: for ΔTm: Compound concentration 10.0 uM
Transcription initiation factor TFIID subunit 1 (Homo sapiens), sequence (P21675 whole entry): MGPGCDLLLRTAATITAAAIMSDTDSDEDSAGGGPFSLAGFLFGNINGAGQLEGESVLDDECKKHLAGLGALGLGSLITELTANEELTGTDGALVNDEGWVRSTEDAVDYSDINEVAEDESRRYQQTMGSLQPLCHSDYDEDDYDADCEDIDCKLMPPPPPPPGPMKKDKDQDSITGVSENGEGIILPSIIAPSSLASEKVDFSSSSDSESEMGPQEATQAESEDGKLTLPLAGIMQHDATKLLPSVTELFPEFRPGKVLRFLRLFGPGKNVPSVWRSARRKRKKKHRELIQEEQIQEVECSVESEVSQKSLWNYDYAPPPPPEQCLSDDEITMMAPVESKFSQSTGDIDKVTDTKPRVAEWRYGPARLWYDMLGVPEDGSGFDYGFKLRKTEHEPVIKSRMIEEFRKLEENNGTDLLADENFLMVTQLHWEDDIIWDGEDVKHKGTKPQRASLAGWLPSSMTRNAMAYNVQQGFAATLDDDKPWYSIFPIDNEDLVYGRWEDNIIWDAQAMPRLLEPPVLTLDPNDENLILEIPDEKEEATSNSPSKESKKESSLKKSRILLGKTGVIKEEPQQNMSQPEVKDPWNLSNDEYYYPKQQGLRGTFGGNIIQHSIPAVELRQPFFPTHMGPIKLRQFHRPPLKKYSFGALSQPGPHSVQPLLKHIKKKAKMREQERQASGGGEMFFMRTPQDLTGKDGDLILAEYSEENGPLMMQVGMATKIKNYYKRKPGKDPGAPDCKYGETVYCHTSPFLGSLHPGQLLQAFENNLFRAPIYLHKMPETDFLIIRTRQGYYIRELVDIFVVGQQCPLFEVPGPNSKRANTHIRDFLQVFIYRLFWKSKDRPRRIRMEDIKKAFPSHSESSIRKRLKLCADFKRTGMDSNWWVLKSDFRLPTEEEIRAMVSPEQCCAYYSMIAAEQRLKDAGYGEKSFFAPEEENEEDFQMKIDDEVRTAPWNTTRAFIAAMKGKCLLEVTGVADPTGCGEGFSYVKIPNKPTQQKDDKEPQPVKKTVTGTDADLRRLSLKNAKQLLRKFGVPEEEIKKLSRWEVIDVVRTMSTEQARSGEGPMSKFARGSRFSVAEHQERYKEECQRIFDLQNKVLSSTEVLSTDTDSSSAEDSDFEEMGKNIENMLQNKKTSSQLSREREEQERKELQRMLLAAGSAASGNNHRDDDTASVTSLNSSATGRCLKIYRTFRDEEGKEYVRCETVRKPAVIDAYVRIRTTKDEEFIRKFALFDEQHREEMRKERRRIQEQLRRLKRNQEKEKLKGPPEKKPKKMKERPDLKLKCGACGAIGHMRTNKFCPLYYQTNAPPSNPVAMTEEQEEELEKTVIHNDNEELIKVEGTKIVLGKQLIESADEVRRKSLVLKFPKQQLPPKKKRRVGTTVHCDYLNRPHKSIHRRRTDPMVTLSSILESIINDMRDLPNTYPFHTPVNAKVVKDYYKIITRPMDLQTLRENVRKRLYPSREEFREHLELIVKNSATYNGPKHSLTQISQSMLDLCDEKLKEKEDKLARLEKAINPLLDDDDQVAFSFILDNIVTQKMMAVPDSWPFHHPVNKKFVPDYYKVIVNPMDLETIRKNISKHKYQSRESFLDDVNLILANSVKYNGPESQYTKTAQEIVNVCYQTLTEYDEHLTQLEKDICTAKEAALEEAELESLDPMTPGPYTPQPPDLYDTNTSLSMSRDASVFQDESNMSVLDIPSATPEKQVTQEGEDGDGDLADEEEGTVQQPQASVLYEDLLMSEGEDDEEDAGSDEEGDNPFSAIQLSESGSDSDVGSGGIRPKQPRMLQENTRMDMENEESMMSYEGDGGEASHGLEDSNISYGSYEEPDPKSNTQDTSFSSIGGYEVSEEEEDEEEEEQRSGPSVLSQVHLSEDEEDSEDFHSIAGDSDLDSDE

[5] = biological target: 5-hydroxytryptamine receptor 2C (Homo sapiens) (UniProt P28335); settings: Compound concentration 10.0 uM
Rattus norvegicus = species on record: Rattus norvegicus; settings: Compound concentration 10.0 uM
[6] = biological target: Dual specificity tyrosine-phosphorylation-regulated kinase 1A (Homo sapiens) (UniProt Q13627); experiment: DYRK1A SGC Tm panel (DSF); settings: for ΔTm: Compound concentration 10.0 uM
[7] = biological target: Serine/threonine-protein kinase pim-1 (Homo sapiens) (UniProt P11309); experiment: PIM1 SGC Tm panel (DSF); settings: for ΔTm: Compound concentration 10.0 uM
Serine/threonine-protein kinase pim-1 (Homo sapiens), sequence (P11309 whole entry, looked up): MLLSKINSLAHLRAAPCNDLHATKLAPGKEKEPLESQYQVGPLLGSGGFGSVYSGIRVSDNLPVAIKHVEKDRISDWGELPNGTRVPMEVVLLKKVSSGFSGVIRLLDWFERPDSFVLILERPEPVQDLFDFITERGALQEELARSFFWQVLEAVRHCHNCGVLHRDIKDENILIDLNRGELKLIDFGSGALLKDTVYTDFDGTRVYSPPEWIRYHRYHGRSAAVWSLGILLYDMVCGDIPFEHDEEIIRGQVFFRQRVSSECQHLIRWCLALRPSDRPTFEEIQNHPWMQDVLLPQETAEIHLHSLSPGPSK

[8] = biological target: T1, Dual specificity mitogen-activated protein kinase kinase 6 (Homo sapiens) (UniProt P52564); experiment: MAP2K6 SGC Tm panel (DSF); settings: for ΔTm: Compound concentration 10.0 uM
T1 sequence (whole entry): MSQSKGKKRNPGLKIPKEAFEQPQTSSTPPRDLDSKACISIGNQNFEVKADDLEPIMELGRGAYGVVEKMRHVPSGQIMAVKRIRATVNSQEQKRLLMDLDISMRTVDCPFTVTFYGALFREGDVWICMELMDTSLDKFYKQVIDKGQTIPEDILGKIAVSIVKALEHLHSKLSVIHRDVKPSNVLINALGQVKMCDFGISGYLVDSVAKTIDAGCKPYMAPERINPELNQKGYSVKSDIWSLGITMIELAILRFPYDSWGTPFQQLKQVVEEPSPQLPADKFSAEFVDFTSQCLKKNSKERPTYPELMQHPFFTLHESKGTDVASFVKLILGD

[9] = biological target: MAP/microtubule affinity-regulating kinase 3 (Homo sapiens) (UniProt P27448); experiment: MARK3 SGC Tm panel (DSF); settings: for ΔTm: Compound concentration 10.0 uM
MAP/microtubule affinity-regulating kinase 3 (Homo sapiens), sequence (P27448 whole entry, looked up): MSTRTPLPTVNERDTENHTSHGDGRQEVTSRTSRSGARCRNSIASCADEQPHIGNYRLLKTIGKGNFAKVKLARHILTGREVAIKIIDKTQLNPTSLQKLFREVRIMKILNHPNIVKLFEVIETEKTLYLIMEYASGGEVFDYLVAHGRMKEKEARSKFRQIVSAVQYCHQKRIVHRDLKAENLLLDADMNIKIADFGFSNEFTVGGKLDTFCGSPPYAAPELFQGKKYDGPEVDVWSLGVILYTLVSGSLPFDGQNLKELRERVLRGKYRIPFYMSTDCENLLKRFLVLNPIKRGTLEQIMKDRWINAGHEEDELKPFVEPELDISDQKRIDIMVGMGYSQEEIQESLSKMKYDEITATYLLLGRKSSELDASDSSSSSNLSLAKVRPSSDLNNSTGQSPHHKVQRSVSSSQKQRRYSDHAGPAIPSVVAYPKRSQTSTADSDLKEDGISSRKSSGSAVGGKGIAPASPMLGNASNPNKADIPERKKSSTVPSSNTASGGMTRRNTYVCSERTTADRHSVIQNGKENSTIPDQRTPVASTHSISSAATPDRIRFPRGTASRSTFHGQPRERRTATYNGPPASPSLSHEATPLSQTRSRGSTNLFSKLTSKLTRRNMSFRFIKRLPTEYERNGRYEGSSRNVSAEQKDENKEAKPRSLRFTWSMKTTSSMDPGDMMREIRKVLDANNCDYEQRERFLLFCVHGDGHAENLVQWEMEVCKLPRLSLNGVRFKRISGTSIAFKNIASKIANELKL

[10] = biological target: Serine/threonine-protein kinase PAK 4 (Homo sapiens) (UniProt O96013); experiment: PAK4 SGC Tm panel (DSF); settings: for ΔTm: Compound concentration 10.0 uM
[11] = biological target: T2, Serine/threonine-protein kinase Nek2 (Homo sapiens) (UniProt P51955); experiment: NEK2 SGC Tm panel (DSF); settings: for ΔTm: Compound concentration 10.0 uM
T2 sequence (whole entry): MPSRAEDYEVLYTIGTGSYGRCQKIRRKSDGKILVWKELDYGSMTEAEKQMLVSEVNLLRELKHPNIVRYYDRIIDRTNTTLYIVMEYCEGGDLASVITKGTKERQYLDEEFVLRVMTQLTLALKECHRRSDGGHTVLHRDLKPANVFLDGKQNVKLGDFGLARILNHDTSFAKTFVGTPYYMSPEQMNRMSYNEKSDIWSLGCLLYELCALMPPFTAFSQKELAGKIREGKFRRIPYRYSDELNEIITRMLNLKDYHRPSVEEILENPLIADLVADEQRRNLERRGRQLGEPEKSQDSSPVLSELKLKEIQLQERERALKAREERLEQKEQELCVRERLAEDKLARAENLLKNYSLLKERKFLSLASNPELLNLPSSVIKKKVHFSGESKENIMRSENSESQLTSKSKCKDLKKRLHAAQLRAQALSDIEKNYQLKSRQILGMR

[12] = biological target: Ephrin type-A receptor 5 (Homo sapiens) (UniProt P54756); experiment: EPHA5 SGC Tm panel (DSF); settings: for ΔTm: Compound concentration 10.0 uM
[13] = biological target: D(4) dopamine receptor (Homo sapiens) (UniProt P21917); settings: Compound concentration 10.0 uM
[14] = biological target: T3, Bone morphogenetic protein receptor type-2 (Homo sapiens) (UniProt Q13873); experiment: BMPR2 SGC Tm panel (DSF); settings: for ΔTm: Compound concentration 10.0 uM
T3 sequence (whole entry): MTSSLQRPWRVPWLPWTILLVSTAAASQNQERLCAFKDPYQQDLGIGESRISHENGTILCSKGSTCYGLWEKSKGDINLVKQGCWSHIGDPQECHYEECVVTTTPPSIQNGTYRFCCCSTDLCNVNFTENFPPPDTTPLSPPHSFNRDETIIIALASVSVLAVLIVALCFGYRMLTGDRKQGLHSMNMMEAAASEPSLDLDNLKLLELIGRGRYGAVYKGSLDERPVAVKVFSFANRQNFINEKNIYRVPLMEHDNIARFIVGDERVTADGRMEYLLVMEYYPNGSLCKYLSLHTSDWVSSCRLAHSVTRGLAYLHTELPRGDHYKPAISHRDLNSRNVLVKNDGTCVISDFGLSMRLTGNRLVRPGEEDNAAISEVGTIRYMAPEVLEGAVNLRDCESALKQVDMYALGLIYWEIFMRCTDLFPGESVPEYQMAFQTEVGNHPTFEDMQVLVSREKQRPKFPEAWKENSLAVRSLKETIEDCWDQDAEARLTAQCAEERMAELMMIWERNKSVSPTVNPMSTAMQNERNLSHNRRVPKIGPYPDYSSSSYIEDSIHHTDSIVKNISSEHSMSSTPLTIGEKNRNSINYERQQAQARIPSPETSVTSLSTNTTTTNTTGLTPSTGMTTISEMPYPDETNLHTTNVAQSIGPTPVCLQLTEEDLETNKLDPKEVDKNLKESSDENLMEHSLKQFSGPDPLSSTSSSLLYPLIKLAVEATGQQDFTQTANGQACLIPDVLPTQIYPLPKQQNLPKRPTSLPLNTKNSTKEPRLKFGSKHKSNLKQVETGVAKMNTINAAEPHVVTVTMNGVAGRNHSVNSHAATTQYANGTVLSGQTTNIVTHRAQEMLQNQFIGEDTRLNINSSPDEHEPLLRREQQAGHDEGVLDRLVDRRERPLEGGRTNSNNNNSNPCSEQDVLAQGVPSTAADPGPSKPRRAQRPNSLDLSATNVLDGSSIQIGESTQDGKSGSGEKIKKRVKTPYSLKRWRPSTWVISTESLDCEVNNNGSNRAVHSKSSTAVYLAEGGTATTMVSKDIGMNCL

[15] = biological target: Serine/threonine-protein kinase pim-3 (Homo sapiens) (UniProt Q86V86); experiment: PIM3 SGC Tm panel (DSF); settings: for ΔTm: Compound concentration 10.0 uM
[16] = biological target: Mu-type opioid receptor (Homo sapiens) (UniProt P35372); settings: Compound concentration 10.0 uM
[17] = biological target: SWI/SNF-related matrix-associated actin-dependent regulator of chromatin subfamily A member 4 (Homo sapiens, UniProt P51532); experiment: Luciferase reporter assay: SMARCA4 transcriptional activity in a SMARCA2-mutant cell line; assay type: functional

Tyrosine-protein kinase ABL1 (Homo sapiens), sequence (P00519 whole entry, canonical isoform): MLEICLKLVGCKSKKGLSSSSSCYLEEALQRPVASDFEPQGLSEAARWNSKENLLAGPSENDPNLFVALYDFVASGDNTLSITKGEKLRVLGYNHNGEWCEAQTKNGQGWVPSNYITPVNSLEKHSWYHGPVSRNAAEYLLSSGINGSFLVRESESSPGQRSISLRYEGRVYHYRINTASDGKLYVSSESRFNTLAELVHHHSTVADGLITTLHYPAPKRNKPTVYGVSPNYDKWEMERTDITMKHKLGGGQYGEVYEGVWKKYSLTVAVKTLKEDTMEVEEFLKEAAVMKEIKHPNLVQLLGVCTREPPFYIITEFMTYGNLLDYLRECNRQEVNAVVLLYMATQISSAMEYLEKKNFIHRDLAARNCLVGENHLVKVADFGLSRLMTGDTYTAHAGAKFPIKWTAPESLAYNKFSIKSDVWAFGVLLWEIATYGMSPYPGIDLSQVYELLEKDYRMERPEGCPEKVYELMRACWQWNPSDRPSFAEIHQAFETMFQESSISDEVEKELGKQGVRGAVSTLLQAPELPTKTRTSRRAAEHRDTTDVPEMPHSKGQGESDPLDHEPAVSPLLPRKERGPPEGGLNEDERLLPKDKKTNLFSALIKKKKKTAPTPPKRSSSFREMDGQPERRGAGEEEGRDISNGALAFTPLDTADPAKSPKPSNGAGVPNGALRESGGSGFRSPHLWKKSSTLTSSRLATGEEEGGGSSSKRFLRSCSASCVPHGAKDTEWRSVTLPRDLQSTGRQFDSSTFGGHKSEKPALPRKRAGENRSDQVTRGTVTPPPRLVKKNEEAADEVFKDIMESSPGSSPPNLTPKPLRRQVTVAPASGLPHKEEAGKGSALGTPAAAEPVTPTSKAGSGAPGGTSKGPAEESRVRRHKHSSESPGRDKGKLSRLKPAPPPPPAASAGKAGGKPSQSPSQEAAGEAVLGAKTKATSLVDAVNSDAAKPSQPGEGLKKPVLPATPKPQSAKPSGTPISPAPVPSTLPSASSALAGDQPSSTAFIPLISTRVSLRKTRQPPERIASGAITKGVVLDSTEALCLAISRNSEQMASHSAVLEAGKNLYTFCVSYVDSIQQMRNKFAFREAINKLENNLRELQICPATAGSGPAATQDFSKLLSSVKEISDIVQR

Structure (SMILES)	inhibition [1]	delta Tm Staurosporine positive control [2]	ΔTm [2]	delta Tm Staurosporine positive control [3]	ΔTm [3]	delta Tm Staurosporine positive control [4]	ΔTm [4]	inhibition [5]	inhibition (Rattus norvegicus)	delta Tm Staurosporine positive control [6]	ΔTm [6]	delta Tm Staurosporine positive control [7]	ΔTm [7]	delta Tm Staurosporine positive control [8]	ΔTm [8]	delta Tm Staurosporine positive control [9]	ΔTm [9]	delta Tm Staurosporine positive control [10]	ΔTm [10]	delta Tm Staurosporine positive control [11]	also measured
COC[C@H](NC(=O)c1ccn(S(C)(=O)=O)c1)C(=O)Nc1nc(-c2cccc(-c3ccn(C)n3)c2)cs1	30.9%	8.26	0.39	1.43	0.637	0.177	0.0215	14.2%	47.5%	9.3	-0.76	11.9	-0.353	12.1	1.51	19.1	1.12	13.4	-0.0385	3.7	ΔTm [11]: 0.182; delta Tm Staurosporine positive control [12]: 8.98; ΔTm [12]: 0.13; inhibition [13]: 1.52%; delta Tm Staurosporine positive control [14]: 2.89; ΔTm [14]: 0.371; delta Tm Staurosporine positive control [15]: 17.6; ΔTm [15]: 0.116; inhibition [16]: 18.8%; IC50 [17]: 30.2 nM (active)
C[C@H](NC(=O)c1cn(C2(C#N)CC2)cn1)C(=O)Nc1nc(-c2cccc(-c3ccn(C)n3)c2)cs1	38.9%	8.26	0.15	1.43	0.845	0.177	-0.179	18.3%	64.6%	9.3	-0.834	11.9	-0.391	12.1	1.65	19.1	1.73	13.4	-0.0631	3.7	ΔTm [11]: -0.146; delta Tm Staurosporine positive control [12]: 8.98; ΔTm [12]: 0.273; inhibition [13]: 6.59%; delta Tm Staurosporine positive control [14]: 2.89; ΔTm [14]: 0.38; delta Tm Staurosporine positive control [15]: 17.6; ΔTm [15]: 0.698; inhibition [16]: 8.54%; IC50 [17]: 2370 nM (not active)
